Laboratory results from patent publication US8486465B1 (priority 2007, dated 2013).

Tested on: Human breast cancer MCF-7 cells
Test: Apoptosis of MCF-7 cells by Propidium Iodide technique measured by flow cytometry
Type: cell-based
Details: NOE 0
Excerpt: Cell Culture. […] Levels of apoptosis (cell death) were then examined using the Propidium Iodide technique as measured by flow cytometry using a FACscan (BD Biosciences, San Jose, Calif.). Forward (FSC) and Side scatter (SSC) were used to gate the cells.
(§1) FIGS. 1A, 1C, 1E, and 1G are dot plots which show the populations of cells grown under the particular culture conditions described below, while FIGS. 1B, 1D, 1F, and 1H respectively are the corresponding frequency histograms showing the total population of apoptotic MCF-7 cancer cells for each culture.
as §1, with “2A, 2C, 2E,” for “1A, 1C, 1E,”, “2G” for “1G”, “[…]” for “1B, 1D, 1F,”, “2B, 2D, 2F and 2H” for “1H”

[1] = GSH 5 mM alone, MCF-7, 24 hours (Table 1, Example 2)
[2] = GSH 10 mM alone, MCF-7, 24 hours (Table 2, Example 3)

**Q.** What does the source list for `N[C@@H](CCC(=O)N[C@@H](CS)C(=O)NCC(=O)O)C(=O)O` [GSH, Glutathione]?
**A.** % cell death [1]: 20%; % cell death relative to control [1]: 11%; % cell survival [1]: 80%; % cell survival relative to Control [1]: 98%; % cell death [2]: 10%; % cell death relative to control [2]: 96%; % cell survival [2]: 90%; % cell survival relative to Control [2]: 95%
